Laboratory results published in article PMC5577244, “CD2068 potentially mediates multidrug efflux in Clostridium difficile” (Scientific Reports, 2017).

Molecular target: T1, CD2068 (Clostridioides difficile, UniProt Q188D7)
T1 construct: gene CD630_20680; full coding region in pET28a (NcoI/EcoRI), C-terminal His6 tag kept; expressed in E. coli BL21(DE3) pLysS; inside-out membrane vesicles; ~60 kDa
Test: vanadate-sensitive ATPase stimulation, inside-out membrane vesicles, phosphate release
Type: biochemical
Settings: not given
From the text: vanadate-sensitive ATPase stimulation, inside-out membrane vesicles, phosphate release on CD2068

T1 sequence (Q188D7 entry or part of it): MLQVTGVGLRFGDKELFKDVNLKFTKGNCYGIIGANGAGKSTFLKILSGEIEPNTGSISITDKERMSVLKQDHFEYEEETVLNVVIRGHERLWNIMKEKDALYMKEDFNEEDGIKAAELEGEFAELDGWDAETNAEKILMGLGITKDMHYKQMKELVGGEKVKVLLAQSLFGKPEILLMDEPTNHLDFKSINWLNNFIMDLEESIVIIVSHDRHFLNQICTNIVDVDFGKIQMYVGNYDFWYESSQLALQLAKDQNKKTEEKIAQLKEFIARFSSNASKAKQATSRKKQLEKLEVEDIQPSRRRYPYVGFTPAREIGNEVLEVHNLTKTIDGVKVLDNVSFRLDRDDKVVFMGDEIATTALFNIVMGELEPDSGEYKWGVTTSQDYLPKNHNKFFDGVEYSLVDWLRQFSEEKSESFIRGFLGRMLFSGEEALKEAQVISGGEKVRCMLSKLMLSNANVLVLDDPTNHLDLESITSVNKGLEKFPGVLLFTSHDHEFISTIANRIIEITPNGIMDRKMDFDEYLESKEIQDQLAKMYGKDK

Point of comparison: `CN[C@H](CC(C)C)C(=O)N[C@H]1C(=O)N[C@@H](CC(N)=O)C(=O)N[C@H]2C(=O)N[C@H]3C(=O)N[C@H](C(=O)N[C@H](C(=O)O)c4cc(O)cc(O)c4-c4cc3ccc4O)[C@H](O)c3ccc(c(Cl)c3)Oc3cc2cc(c3O[C@@H]2O[C@H](CO)[C@@H](O)[C@H](O)[C@H]2O[C@H]2C[C@](C)(N)[C@H](O)[C@H](C)O2)Oc2ccc(cc2Cl)[C@H]1O` [Vancomycin], EC50 3.4 ± 1 µM. Against it:
- CC1(C)S[C@@H]2[C@H](NC(=O)[C@H](N)c3ccccc3)C(=O)N2[C@H]1C(=O)O [Ampicillin] — within 1.5-fold, 4.4 µM
- CO[C@@]1(NC(=O)Cc2cccs2)C(=O)N2C(C(=O)O)=C(COC(N)=O)CS[C@@H]21 [Cefoxitin] — 2.2-fold higher, 7.6 ± 1 µM
- Cc1onc(-c2ccccc2Cl)c1C(=O)N[C@@H]1C(=O)N2[C@@H]1SC(C)(C)[C@@H]2C(=O)O [Cloxacillin] — within error, 3 µM
- CC[C@H]1OC(=O)[C@H](C)[C@@H](O[C@H]2C[C@@](C)(OC)[C@@H](O)[C@H](C)O2)[C@H](C)[C@@H](O[C@@H]2O[C@H](C)C[C@H](N(C)C)[C@H]2O)[C@](C)(O)C[C@@H](C)/C(=N\OCOCCOC)[C@H](C)[C@@H](O)[C@]1(C)O [Roxithromycin] — within error, 2.9 µM

Same assay, conditions: read-out: ATPase activity / SC50

`C[C@H]1COc2c(N3CCN(C)CC3)c(F)cc3c(=O)c(C(=O)O)cn1c23` [Levofloxacin] was tested, and the EC50 was 4.5 ± 1 µM.
